Nine compounds from patent US10590105B2, “1,3-dihydroxy-phenyl derivatives useful as immunomodulators” (BRISTOL-MYERS SQUIBB COMPANY, priority 2016, dated 2020) can be followed below.

This test has as its target PD-1/PD-L1 interaction (PD-1-Ig / PD-L1-His) (Homo sapiens (Human), UniProt Q9NZQ7). Briefly: PD-1/PD-L1 Homogenous Time-Resolved Fluorescence (HTRF) binding assay. To be noted: PD-1/PD-L1 HTRF binding assay, read-out: Range or IC50. The text has this: The ability of the compounds of formula (I) to bind to PD-L1 was investigated using a PD-1/PD-L1 Homogenous Time-Resolved Fluorescence (HTRF) binding assay.
Homogenous Time-Resolved Fluorescence (HTRF) Binding Assay.
The interaction of PD-1 and PD-L1 can be assessed using soluble, purified preparations of the extracellular domains of the two proteins. The PD-1 and PD-L1 protein extracellular domains were expressed as fusion proteins with detection tags, for PD-1, the tag was the Fc portion of Immunoglobulin (PD-1-Ig) and for PD-L1 it was the 6 histidine motif (PD-L1-His). All binding studies were performed in an HTRF assay buffer consisting of dPBS supplemented with 0.1% […] bovine serum albumin and 0.05% (v/v) Tween-20. For the h/PD-L1-His binding assay, inhibitors were pre-incubated with PD-L1-His (10 nM final) for 15 m in 4 μl of assay buffer, followed by addition of PD-1-Ig (20 nM final) in 1 μl of assay buffer and further incubation for 15 m. HTRF detection was achieved using europium crypate-labeled anti-Ig (1 nM final) and allophycocyanin (APC) labeled anti-His (20 nM final). Antibodies were diluted in HTRF detection buffer and 5 μl was dispensed on top of the binding reaction. The reaction mixture was allowed to equilibrate for 30 minutes and the resulting signal (665 nm/620 nm ratio) was obtained using an EnVision fluorometer. Additional binding assays were established between the human proteins PD-1-Ig/PD-L2-His (20 & 5 nM, respectively) and CD80-His/PD-L1-Ig (100 & 10 nM, respectively).
Recombinant Proteins. Human PD-1 (25-167) with a C-terminal human Fc domain of immunoglobulin G (Ig) epitope tag [hPD-1 (25-167)-3S-IG] and human PD-L1 (18-239) with a C-terminal His epitope tag [hPD-L1(18-239)-TVMV-His] were expressed in HEK293T cells and purified sequentially by ProteinA affinity chromatography and size exclusion chromatography. Human PD-L2-His and CD80-His was obtained through commercial sources.
Ranges are as follows: A=0.001 to 0.010 micromolar; B=0.011 to 0.150 micromolar; C=0.151 to 10 micromolar.
A general note: In TR-FRET formats the signal depends on donor and acceptor labels being close together.

Where two headings read alike, the source gives them in different places.

Chain of PD-1/PD-L1 interaction (PD-1-Ig / PD-L1-His) (Q9NZQ7 other isoform, or with tags, fused parts or gaps): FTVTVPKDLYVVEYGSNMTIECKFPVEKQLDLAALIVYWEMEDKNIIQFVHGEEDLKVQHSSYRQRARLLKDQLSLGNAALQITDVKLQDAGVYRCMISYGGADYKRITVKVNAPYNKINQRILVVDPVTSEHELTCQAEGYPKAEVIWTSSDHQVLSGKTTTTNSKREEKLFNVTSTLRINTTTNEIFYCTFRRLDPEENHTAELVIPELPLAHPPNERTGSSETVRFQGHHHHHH

Regarding `Cc1c(COc2cc(OCc3cncc(C#N)c3)c(CN3CCC[C@@]3(C)C(=O)O)cc2Cl)cccc1-c1ccc2scnc2c1` [Example 1023, (S)-1-(4-((3-(benzo[d]thiazol-5-yl)-2-methylbenzyl)oxy)-5-chloro-2-((5-cyanopyridin-3-yl)methoxy)benzyl)-2-methylpyrrolidine-2-carboxylic acid], the IC50 (value given as range class) lay within 11 to 150 nM.
For the compound `Cc1c(COc2cc(OCc3cncc(C#N)c3)c(CN[C@](C)(CO)C(=O)O)cc2Cl)cccc1-c1ccc2[nH]cnc2c1` [Example 1024, (R)-2-((4-((3-(1H-benzo[d]imidazol-5-yl)-2-methylbenzyl)oxy)-5-chloro-2-((5-cyanopyridin-3-yl)methoxy)benzyl)amino)-3-hydroxy-2-methylpropanoic acid], where the note is “value given as number”, the IC50 turned out to be 135 nM.
Consider `Cc1c(COc2cc(OCc3cncc(C#N)c3)c(CN[C@H](CO)C(=O)O)cc2Cl)cccc1-c1ccc2c(c1)ncn2CCN(C)C` [Example 1025, (R)-2-((5-chloro-2-((5-cyanopyridin-3-yl)methoxy)-4-((3-(1-(2-(dimethylamino)ethyl)-1H-benzo[d]imidazol-6-yl)-2-methylbenzyl)oxy)benzyl)amino)-3-hydroxypropanoic acid and (R)-2-((5-chloro-2-((5-cyanopyridin-3-yl)methoxy)-4-((3-(1-(2-(dimethylamino)ethyl)-1H-benzo[d]imidazol-5-yl)-2-methylbenzyl)oxy)benzyl)amino)-3-hydroxypropanoic acid], for which the IC50 (value given as range class) fell in the range of 151 to 10000 nM.
Same read-out and setting: the figure for `Cc1c(COc2cc(OCc3cncc(C#N)c3)c(C=O)cc2Cl)cccc1-c1ccc2oc(CCN3CC[C@@H](O)C3)nc2c1` [Example 1027, (R)-5-((4-chloro-2-formyl-5-((3-(2-(2-(3-hydroxypyrrolidin-1-yl)ethyl)benzo[d]oxazol-5-yl)-2-methylbenzyl)oxy)phenoxy)methyl)nicotinonitrile] is 151 to 10000 nM; for `Cc1c(COc2cc(OCc3cncc(C#N)c3)c(CN[C@](C)(CO)C(=O)O)cc2Cl)cccc1-c1ccc2oc(CCN3CC[C@@H](O)C3)nc2c1` [Example 1028, (R)-2-((5-chloro-2-((5-cyanopyridin-3-yl)methoxy)-4-((3-(2-(2-((R)-3-hydroxypyrrolidin-1-yl)ethyl)benzo[d]oxazol-5-yl)-2-methylbenzyl)oxy)benzyl)amino)-3-hydroxy-2-methylpropanoic acid] it is 1 to 10 nM; for `Cc1c(COc2cc(OCc3cncc(C#N)c3)c(CN3CCCC[C@H]3C(=O)O)cc2Cl)cccc1-c1ccc2oc(CCN3CC[C@@H](O)C3)nc2c1` [Example 1029, (S)-1-(5-chloro-2-((5-cyanopyridin-3-yl)methoxy)-4-((3-(2-(2-((R)-3-hydroxypyrrolidin-1-yl)ethyl)benzo[d]oxazol-5-yl)-2-methylbenzyl)oxy)benzyl)piperidine-2-carboxylic acid] it is 1 to 10 nM.
The same measure, in the same setting: the figure for `Cc1c(COc2cc(OCc3cncc(C#N)c3)c(CN3CCCC[C@H]3C(=O)O)cc2Cl)cccc1-c1cccc(OCCCN2CC[C@@H](O)C2)n1` [Example 1030, (S)-1-(5-chloro-2-((5-cyanopyridin-3-yl)methoxy)-4-((3-(6-(3-((R)-3-hydroxypyrrolidin-1-yl)propoxy)pyridin-2-yl)-2-methylbenzyl)oxy)benzyl)piperidine-2-carboxylic acid] is 151 to 10000 nM; for `Cc1c(COc2cc(OCc3cncc(C#N)c3)c(CO)cc2Cl)cccc1-c1cccc(OCCCN2CC[C@@H](O)C2)n1` [Example 1031, (R)-5-((4-chloro-2-(hydroxymethyl)-5-((3-(6-(3-(3-hydroxypyrrolidin-1-yl)propoxy)pyridin-2-yl)-2-methylbenzyl)oxy)phenoxy)methyl)nicotinonitrile] it is 151 to 10000 nM.
The same measure, in the same setting: the figure for `Cc1c(COc2cc(OCc3cncc(C#N)c3)c(CN3CCCC[C@H]3C(=O)O)cc2Cl)cccc1-c1ccc2nccnc2c1` [Example 1032, (S)-1-(5-chloro-2-((5-cyanopyridin-3-yl)methoxy)-4-((2-methyl-3-(quinoxalin-6-yl)benzyl)oxy)benzyl)piperidine-2-carboxylic acid] is 11 to 150 nM.

By IC50 is commonly meant the concentration needed to halve the response being measured.
